Data from patent US8785460B2, “Tricyclic compounds and use thereof” (Takeda Pharmaceutical Company Limited, priority 2008, dated 2014).
pIC50: −log10 of the molar value.

What was measured:
human CRF1 receptor = molecular target: T1, human CRF1 receptor (Homo sapiens, UniProt P34998); assay: Measurement of CRF Binding Inhibitory Rate (receptor binding experiment with 125I-CRF); conditions: human CRF1 receptor expressing CHO cellular membrane fraction, 50 pM 125I-CRF, room temperature 1.5 hr, 0.05 nM to 10 μM of compound; read-out: IC50 values (CRF binding inhibition)
T1 construct: expressed in transfected cells; host or cells: CHO cells (membrane fraction)
T1 sequence (P34998 24-415): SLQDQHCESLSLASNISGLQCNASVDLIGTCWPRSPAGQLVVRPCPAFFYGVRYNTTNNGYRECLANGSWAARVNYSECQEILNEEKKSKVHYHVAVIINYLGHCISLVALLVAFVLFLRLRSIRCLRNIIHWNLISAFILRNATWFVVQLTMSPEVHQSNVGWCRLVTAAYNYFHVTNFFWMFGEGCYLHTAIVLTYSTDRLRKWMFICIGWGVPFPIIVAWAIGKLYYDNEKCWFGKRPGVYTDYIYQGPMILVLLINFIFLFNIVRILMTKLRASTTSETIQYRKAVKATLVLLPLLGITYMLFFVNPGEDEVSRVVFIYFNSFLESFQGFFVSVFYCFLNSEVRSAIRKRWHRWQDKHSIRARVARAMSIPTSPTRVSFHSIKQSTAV

## CCC(CC)c1ccc(Cl)c2nc3n(c12)CCCCN3c1c(C)noc1C [Example 343, 10-Chloro-1-(3,5-dimethylisoxazol-4-yl)-7-(1-ethylpropyl)-2,3,4,5-tetrahydro-1H-[1,3]diazepino[1,2-a]benzimidazole]
Human CRF1 receptor
  pIC50: > 6.00
other
  melting point: 163 to 164 °C

## COC(c1cccc2nc3n(c12)CCCN3c1ccc(Cl)cc1Cl)C1CC1 (centres unmarked) [Example 200, 6-[Cyclopropyl(methoxy)methyl]-1-(2,4-dichlorophenyl)-1,2,3,4-tetrahydropyrimido[1,2-a]benzimidazole]
Human CRF1 receptor
  pIC50: > 6.00
other
  melting point: 118 to 119 °C

## CCC(CC)c1ccc(Cl)c2nc3n(c12)CCCCN3c1ncc(S(C)(=O)=O)cc1C [Example 341, 10-Chloro-7-(1-ethylpropyl)-1-[3-methyl-5-(methylsulfonyl)pyridin-2-yl]-2,3,4,5-tetrahydro-1H-[1,3]diazepino[1,2-a]benzimidazole]
Human CRF1 receptor
  pIC50: > 6.00
other
  melting point: 137 to 139 °C

## CCC(O)c1ccc(Cl)c2nc3n(c12)CCCN3c1c(Cl)cc(OC)cc1Cl (centres unmarked) [Example 394, 1-[9-Chloro-1-(2,6-dichloro-4-methoxyphenyl)-1,2,3,4-tetrahydropyrimido[1,2-a]benzimidazol-6-yl]propan-1-ol]
Human CRF1 receptor
  pIC50: > 6.00
other
  melting point: 206 to 208 °C

## CCC(CC)c1ccc(Cl)c2nc3n(c12)CCCCN3c1ncc(C(F)(F)F)cc1Cl [Example 63, 10-Chloro-1-[3-chloro-5-(trifluoromethyl)pyridin-2-yl]-7-(1-ethylpropyl)-2,3,4,5-tetrahydro-1H-[1,3]diazepino[1,2-a]benzimidazole]
Human CRF1 receptor
  pIC50: > 6.00
other
  melting point: 108 to 110 °C

## FC(F)(F)COC(c1ccc(Cl)c2nc3n(c12)CCCN3c1ccc(Cl)cc1Cl)C1CC1 (centres unmarked) [Example 455, 9-Chloro-6-[cyclopropyl (2,2,2-trifluoroethoxy)methyl]-1-(2,4-dichlorophenyl)-1,2,3,4-tetrahydropyrimido[1,2-a]benzimidazole]
Human CRF1 receptor
  pIC50: > 6.00
other
  melting point: 143 to 145 °C

## CCC(OC(=O)C1CC1)c1ccc(Cl)c2nc3n(c12)CCCN3c1ncc(Cl)cc1Cl (centres unmarked) [Example 172, 1-[9-Chloro-1-(3,5-dichloropyridin-2-yl)-1,2,3,4-tetrahydropyrimido[1,2-a]benzimidazol-6-yl]propyl cyclopropanecarboxylate]
Human CRF1 receptor
  pIC50: > 6.00
other
  melting point: 154 to 155 °C

## Cc1nc(C#N)ccc1N1CCCn2c1nc1c(Cl)ccc(C(OC(F)F)C(F)(F)F)c12 (centres unmarked) [Example 292, 5-{9-Chloro-6-[1-(difluoromethoxy)-2,2,2-trifluoroethyl]-3,4-dihydropyrimido[1,2-a]benzimidazol-1(2H)-yl}-6-methylpyridine-2-carbonitrile]
Human CRF1 receptor
  pIC50: > 6.00
other
  melting point: 177 to 180 °C

## CCN(CC)c1cccc2nc3n(c12)CCCNC3c1ccc(Cl)cc1Cl (centres unmarked) [Example 509, 1-(2,4-Dichlorophenyl)-N,N-diethyl-2,3,4,5-tetrahydro-1H-[1,4]diazepino[1,2-a]benzimidazol-7-amine]
Human CRF1 receptor
  pIC50: > 6.00
other
  melting point: 186 to 188 °C

## CCC(OCC(F)(F)F)c1ccc(Cl)c2nc3n(c12)CCCN3c1ccc(Cl)cc1Cl (centres unmarked) [Example 454, 9-Chloro-1-(2,4-dichlorophenyl)-6-[1-(2,2,2-trifluoroethoxy)propyl]-1,2,3,4-tetrahydropyrimido[1,2-a]benzimidazole]
Human CRF1 receptor
  pIC50: > 6.00
other
  melting point: 146 to 148 °C

## CCC(CC)c1ccc(Cl)c2nc3n(c12)CCCCN3c1ccc([S+](C)[O-])cc1C (centres unmarked) [Example 45, 10-Chloro-7-(1-ethylpropyl)-1-[2-methyl-4-(methylsulfinyl)phenyl]-2,3,4,5-tetrahydro-1H-[1,3]diazepino[1,2-a]benzimidazole]
Human CRF1 receptor
  pIC50: > 6.00
other
  melting point: 189 to 190 °C

## CCC(CC)c1ccc(Cl)c2nc3n(c12)CCCCN3c1ccc(Cl)cc1Cl [Example 21, 10-Chloro-1-(2,4-dichlorophenyl)-7-(1-ethylpropyl)-2,3,4,5-tetrahydro-1H-[1,3]diazepino[1,2-a]benzimidazole]
Human CRF1 receptor
  pIC50: > 6.00
other
  melting point: 160 to 162 °C

## CCN(CC)c1cccc2nc3n(c12)CC(CO)N3c1ccc(Cl)cc1Cl (centres unmarked) [Example 76, [1-(2,4-Dichlorophenyl)-5-(diethylamino)-2,3-dihydro-1H-imidazo[1,2-a]benzimidazol-2-yl]methanol]
Human CRF1 receptor
  pIC50: > 6.00
other
  melting point: 187 to 190 °C

## CCC(OC(=O)CO)c1ccc(Cl)c2nc3n(c12)CCCN3c1ccc(Cl)cc1Cl (centres unmarked) [Example 443, 1-[9-Chloro-1-(2,4-dichlorophenyl)-1,2,3,4-tetrahydropyrimido[1,2-a]benzimidazol-6-yl]propyl hydroxyacetate]
Human CRF1 receptor
  pIC50: > 6.00
other
  melting point: 191 to 193 °C

## CCC(CC)c1ccc(Cl)c2nc3n(c12)CCCN3c1cnc(N(C)C)cc1C [Example 336, 5-[9-Chloro-6-(1-ethylpropyl)-3,4-dihydropyrimido[1,2-a]benzimidazol-1(2H)-yl]-N,N,4-trimethylpyridin-2-amine]
Human CRF1 receptor
  pIC50: > 6.00
other
  melting point: 228 to 230 °C

## CCC(CC)c1ccc(Cl)c2nc3n(c12)CCCCN3c1ncc(Cl)cc1Cl [Example 62, 10-Chloro-1-(3,5-dichloropyridin-2-yl)-7-(1-ethylpropyl)-2,3,4,5-tetrahydro-1H-[1,3]diazepino[1,2-a]benzimidazole]
Human CRF1 receptor
  pIC50: > 6.00
other
  melting point: 175 to 176 °C

## COc1ccc(N2CCCn3c2nc2c(Cl)ccc(C(OC)C(F)(F)F)c23)c(C)n1 (centres unmarked) [Example 280, 9-Chloro-1-(6-methoxy-2-methylpyridin-3-yl)-6-(2,2,2-trifluoro-1-methoxyethyl)-1,2,3,4-tetrahydropyrimido[1,2-a]benzimidazole]
Human CRF1 receptor
  pIC50: > 6.00
other
  melting point: 144 to 146 °C

## CCN(CC)c1cccc2nc3n(c12)CC(OC)CCN3c1ccc(Cl)cc1Cl (centres unmarked) [Example 358, 1-(2,4-Dichlorophenyl)-N,N-diethyl-4-methoxy-2,3,4,5-tetrahydro-1H-[1,3]diazepino[1,2-a]benzimidazol-7-amine]
Human CRF1 receptor
  pIC50: > 6.00
other
  melting point: 120 to 122 °C

## CCCC(O)(CCC)c1ccc(Cl)c2nc3n(c12)CCCN3c1ccc(Cl)cc1Cl [Example 233, 4-[9-Chloro-1-(2,4-dichlorophenyl)-1,2,3,4-tetrahydropyrimido[1,2-a]benzimidazol-6-yl]heptan-4-ol]
Human CRF1 receptor
  pIC50: > 6.00
other
  melting point: 133 to 135 °C

## CCC(CC)c1ccc(Cl)c2nc3n(c12)CCCCN3c1cnc(Br)c(C)c1 [Example 338, 1-(6-Bromo-5-methylpyridin-3-yl)-10-chloro-7-(1-ethylpropyl)-2,3,4,5-tetrahydro-1H-[1,3]diazepino[1,2-a]benzimidazole]
Human CRF1 receptor
  pIC50: > 6.00
other
  melting point: 137 to 140 °C

## COC(C)(C)c1ccc(Cl)c2nc3n(c12)CCCN3c1ccc(Cl)cc1Cl [Example 109, 9-Chloro-1-(2,4-dichlorophenyl)-6-(1-methoxy-1-methylethyl)-1,2,3,4-tetrahydropyrimido[1,2-a]benzimidazole]
Human CRF1 receptor
  pIC50: > 6.00
other
  melting point: 203 to 204 °C

## CCN(CC)c1cccc2nc3n(c12)C=CCCN3c1ccc(Cl)cc1Cl [Example 362, 1-(2,4-Dichlorophenyl)-N,N-diethyl-2,3-dihydro-1H-[1,3]diazepino[1,2-a]benzimidazol-7-amine]
Human CRF1 receptor
  pIC50: > 6.00
other
  melting point: 105 to 106 °C

## CCC(O)c1ccc(Cl)c2nc3n(c12)CCCN3c1c(Cl)cc(Cl)cc1Cl (centres unmarked) [Example 391, 1-[9-Chloro-1-(2,4,6-trichlorophenyl)-1,2,3,4-tetrahydropyrimido[1,2-a]benzimidazol-6-yl]propan-1-ol]
Human CRF1 receptor
  pIC50: > 6.00
other
  melting point: 213 to 214 °C

## Cc1cc(Cl)cc(Cl)c1N1CCn2c1nc1cccc(C(O)(C3CC3)C3CC3)c12 [Example 428, Dicyclopropyl[1-(2,4-dichloro-6-methylphenyl)-2,3-dihydro-1H-imidazo[1,2-a]benzimidazol-5-yl]methanol]
Human CRF1 receptor
  pIC50: > 6.00
other
  melting point: 243 to 246 °C

## COc1ccc(N2CCCn3c2nc2c(Cl)ccc(C(O)(C4CC4)C4CC4)c23)c(C)n1 [Example 276, [9-Chloro-1-(6-methoxy-2-methylpyridin-3-yl)-1,2,3,4-tetrahydropyrimido[1,2-a]benzimidazol-6-yl](dicyclopropyl)methanol]
Human CRF1 receptor
  pIC50: > 6.00
other
  melting point: 208 to 210 °C

## COC(c1ccc(Cl)c2nc3n(c12)CCCN3c1ccc(Cl)cc1C(F)(F)F)C1CC1 (centres unmarked) [Example 134, 9-Chloro-1-[4-chloro-2-(trifluoromethyl)phenyl]-6-[cyclopropyl(methoxy)methyl]-1,2,3,4-tetrahydropyrimido[1,2-a]benzimidazole]
Human CRF1 receptor
  pIC50: > 6.00
other
  melting point: 208 to 209 °C

## CCC(NCC(F)(F)F)c1ccc(Cl)c2nc3n(c12)CCCN3c1ccc(Cl)cc1Cl (centres unmarked) [Example 459, 1-[9-Chloro-1-(2,4-dichlorophenyl)-1,2,3,4-tetrahydropyrimido[1,2-a]benzimidazol-6-yl]-N-(2,2,2-trifluoroethyl)propan-1-amine]
Human CRF1 receptor
  pIC50: > 6.00
other
  melting point: 133 to 135 °C

## CCC(CC)c1ccc(Cl)c2nc3n(c12)CCCCN3c1cnc(C(N)=O)cc1C [Example 61, 5-[10-Chloro-7-(1-ethylpropyl)-2,3,4,5-tetrahydro-1H-[1,3]diazepino[1,2-a]benzimidazol-1-yl]-4-methylpyridine-2-carboxamide]
Human CRF1 receptor
  pIC50: > 6.00
other
  melting point: 267 to 269 °C
